Assays:
[1] = test system: barnyardgrass; assay: Test A pre-/postemergence herbicide test; format: in vivo, Echinochloa crus-galli
How it was run: (§1)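 Visual injury rating on a 0–100 scale (0 no effect, 100 complete control) versus untreated controls, about ten days after treatment in greenhouse. Pre: directed soil spray onto seeded sandy loam. Post: spray to runoff on plants 2–10 cm tall at one- to two-leaf stage.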

[2] = test system: large crabgrass; assay: Test B pre-/postemergence herbicide test; format: in vivo, Digitaria sanguinalis; conditions: for Crabgrass, Large plant response rating: postemergence, visual rating, scale 0 (no effect) to 100 (complete control)
How it was run: (§2)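 Test chemicals in a non-phytotoxic solvent mixture with surfactant were applied preemergence to seeded species and postemergence to plants 2-18 cm tall (1- to 4-leaf stage); rice and barnyardgrass were also tested in a flooded paddy at the 2-leaf stage. Visual rating versus controls after 13-15 days in greenhouse, scale 0 (no effect) to 100 (complete control).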

[3] = test system: wheat; assay: Test B postemergence herbicide test; format: in vivo, Triticum aestivum; set-up: key to Wheat plant response rating: 0 = no effect, 100 = complete control; conditions: postemergence, visual rating, scale 0 (no effect) to 100 (complete control)
How it was run: (§3)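 After treating 2-leaf paddy plants or 2–18 cm postemergence plants (1 to 4 leaves) with formulated chemical, researchers kept them in a greenhouse for 13–15 days. Effects were judged visually versus controls: 0 indicates none, 100 total control.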

[4] = test system: wild oat; assay: Test B postemergence herbicide test; format: in vivo, Avena fatua; conditions: postemergence, visual rating, scale 0 (no effect) to 100 (complete control)
How it was run: as §3

[5] = test system: morningglory; assay: Test A pre-/postemergence herbicide test; format: in vivo, Ipomoea spp.
How it was run: as §1

[6] = test system: pigweed; assay: Test B pre-/postemergence herbicide test; format: in vivo, Amaranthus retroflexus; conditions: for Pigweed plant response rating: postemergence, visual rating, scale 0 (no effect) to 100 (complete control)
How it was run: as §2

[7] = test system: giant foxtail; assay: Test A pre-/postemergence herbicide test; format: in vivo, Setaria faberi
How it was run: as §1

[8] = test system: rice; assay: Test B flooded paddy test; format: in vivo, Oryza sativa; conditions: 1000 g ai/ha, visual rating, scale 0 to 100 (0 no effect, 100 complete control), 13 to 15 days
How it was run: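 Paddy species grown to the 2-leaf stage under flooding; blackgrass sprayed postemergence at 2–18 cm (1- to 4-leaf stage). Plants kept in a greenhouse for 13 to 15 days, then visually rated against controls on 0 (no effect) to 100 (complete control).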

[9] = test system: barnyardgrass; assay: Test B flooded paddy test; format: in vivo, Echinochloa crus-galli; conditions: 1000 g ai/ha, visual rating, scale 0 to 100 (0 no effect, 100 complete control), 13 to 15 days
How it was run: (§4)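 Visual ratings, 0 (no effect) to 100 (complete control), made versus controls after 13–15 d greenhouse. Paddy plants treated at 2-leaf stage; postemergence plants at 1- to 4-leaf stage, 2–18 cm tall.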

[10] = test system: morningglory; assay: Test B pre-/postemergence herbicide test; format: in vivo, Ipomoea coccinea; conditions: for Morningglory plant response rating: postemergence, visual rating, scale 0 (no effect) to 100 (complete control)
How it was run: (§5)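 Visual rating, 0 (no effect) to 100 (complete control), versus untreated controls after 13–15 d in greenhouse. Pre- and postemergence applications (postemergence plants 2–18 cm, 1–4 leaves); flooded paddy arm at 2-leaf stage. Compounds in non-phytotoxic solvent plus surfactant.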

[11] = test system: barnyardgrass; assay: Test B pre-/postemergence herbicide test; format: in vivo, Echinochloa crus-galli; conditions: for Barnyardgrass plant response rating: postemergence, visual rating, scale 0 (no effect) to 100 (complete control)
How it was run: as §5

[12] = test system: small flower umbrella sedge; assay: Test B flooded paddy test; format: in vivo, Cyperus difformis; conditions: 1000 g ai/ha, visual rating, scale 0 to 100 (0 no effect, 100 complete control), 13 to 15 days
How it was run: as §4

[13] = test system: cocklebur; assay: Test B pre-/postemergence herbicide test; format: in vivo, Xanthium strumarium; conditions: postemergence, visual rating, scale 0 (no effect) to 100 (complete control)
How it was run: as §5

[14] = test system: velvetleaf; assay: Test B pre-/postemergence herbicide test; format: in vivo, Abutilon theophrasti; conditions: for Velvetleaf plant response rating: postemergence, visual rating, scale 0 (no effect) to 100 (complete control)
How it was run: as §2

[15] = test system: large crabgrass; assay: Test A pre-/postemergence herbicide test; format: in vivo, Digitaria sanguinalis
How it was run: as §1

[16] = test system: giant foxtail; assay: Test B pre-/postemergence herbicide test; format: in vivo, Setaria faberi; conditions: for Foxtail, Giant plant response rating: postemergence, visual rating, scale 0 (no effect) to 100 (complete control)
How it was run: as §2

[17] = test system: blackgrass; assay: Test B postemergence herbicide test; format: in vivo, Alopecurus myosuroides; conditions: postemergence, visual rating, scale 0 (no effect) to 100 (complete control)
How it was run: as §4

[18] = test system: rice; assay: Test B pre-/postemergence herbicide test; format: in vivo, Oryza sativa; conditions: preemergence
How it was run: as §2

[19] = test system: Surinam grass; assay: Test B pre-/postemergence herbicide test; format: in vivo, Urochloa decumbens; conditions: for Surinam Grass plant response rating: postemergence, visual rating, scale 0 (no effect) to 100 (complete control)
How it was run: as §2

[20] = test system: redroot pigweed; assay: Test A pre-/postemergence herbicide test; format: in vivo, Amaranthus retroflexus
How it was run: as §1

[21] = test system: corn; assay: Test B pre-/postemergence herbicide test; format: in vivo, Zea mays; conditions: for Corn plant response rating: postemergence, visual rating, scale 0 (no effect) to 100 (complete control)
How it was run: as §2

[22] = test system: velvetleaf; assay: Test A pre-/postemergence herbicide test; format: in vivo, Abutilon theophrasti
How it was run: as §1

[23] = test system: lambsquarters; assay: Test B pre-/postemergence herbicide test; format: in vivo, Chenopodium album; conditions: for Lambsquarters plant response rating: postemergence, visual rating, scale 0 (no effect) to 100 (complete control)
How it was run: as §2

[24] = test system: ducksalad; assay: Test B flooded paddy test; format: in vivo, Heteranthera limosa; conditions: 1000 g ai/ha, visual rating, scale 0 to 100 (0 no effect, 100 complete control), 13 to 15 days
How it was run: as §4

[25] = Postemergence, 500 g ai/ha, 0 to 100 scale, 0 no effect, 100 complete control
[26] = Postemergence, 2000 g ai/ha, 0 to 100 scale, 0 no effect, 100 complete control
[27] = Preemergence, 2000 g ai/ha, visual rating, 0 to 100 scale (0 no effect, 100 complete control)
[28] = preemergence, 500 g ai/ha, visual injury, 0 to 100 scale (0 no effect, 100 complete control)
[29] = 125 g ai/ha, 0 = no effect, 100 = complete control, preemergence
[30] = 500 g ai/ha, visual rating 0-100, 0 no effect, 100 complete control, preemergence

## CCn1nc(C(C)(C)C)cc1C(=O)Nc1nc(OC)cc(SCF)n1 [Compound 167]
[1]; [25]
  Barnyardgrass plant response rating: 0
[1]; [26]
  Plant response rating, Barnyardgrass: 0
[1]; [27]
  Barnyardgrass plant response rating: 0
[1]; [28]
  Barnyardgrass plant response rating: 0
[2]; [29]
  Crabgrass, Large plant response rating (0 to 100 scale): 0
[2]; [30]
  Plant response rating, Crabgrass, Large: 0
[2]; 125 g ai/ha
  Crabgrass, Large plant response rating: 0
[2]; 500 g ai/ha
  Crabgrass, Large plant response rating: 0
[3]; 125 g ai/ha
  Wheat plant response rating: 0
[3]; 500 g ai/ha
  Wheat plant response rating: 0
[4]; 125 g ai/ha
  Oat, Wild plant response rating: 0
[4]; 500 g ai/ha
  Oat, Wild plant response rating: 0
[5]; [25]
  Morningglory plant response rating: 0
[5]; [26]
  Plant response rating, Morningglory: 10
[5]; [27]
  Morningglory plant response rating: 5
[5]; [28]
  Morningglory plant response rating: 0
[6]; [29]
  Pigweed plant response rating (0 to 100 scale): 0
[6]; [30]
  Plant response rating, Pigweed: 0
[6]; 125 g ai/ha
  Pigweed plant response rating: 0
[6]; 500 g ai/ha
  Pigweed plant response rating: 0
[7]; [25]
  Foxtail, Giant plant response rating: 0
[7]; [26]
  Plant response rating, Foxtail, Giant: 0
[7]; [27]
  Foxtail, Giant plant response rating: 10
[7]; [28]
  Foxtail, Giant plant response rating: 0
[8]
  Rice plant response rating: 0
[9]
  Barnyardgrass plant response rating: 0
[10]; [29]
  Morningglory plant response rating (0 to 100 scale): 0
[10]; [30]
  Plant response rating, Morningglory: 0
[10]; 125 g ai/ha
  Morningglory plant response rating: 0
[10]; 500 g ai/ha
  Morningglory plant response rating: 0
[11]; [29]
  Barnyardgrass plant response rating (0 to 100 scale): 0
[11]; [30]
  Plant response rating, Barnyardgrass: 0
[11]; 125 g ai/ha
  Barnyardgrass plant response rating: 0
[11]; 500 g ai/ha
  Barnyardgrass plant response rating: 0
[12]
  Sedge, Umbrella plant response rating: 0
[13]; 125 g ai/ha
  Cocklebur plant response rating: 0
[13]; 500 g ai/ha
  Cocklebur plant response rating: 0
[14]; [29]
  Velvetleaf plant response rating (0 to 100 scale): 0
[14]; [30]
  Plant response rating, Velvetleaf: 0
[14]; 125 g ai/ha
  Velvetleaf plant response rating: 0
[14]; 500 g ai/ha
  Velvetleaf plant response rating: 0
[15]; [25]
  Crabgrass, Large plant response rating: 0
[15]; [26]
  Plant response rating, Crabgrass, Large: 5
[15]; [27]
  Crabgrass, Large plant response rating: 5
[15]; [28]
  Crabgrass, Large plant response rating: 0
[16]; [29]
  Foxtail, Giant plant response rating (0 to 100 scale): 0
[16]; [30]
  Plant response rating, Foxtail, Giant: 0
[16]; 125 g ai/ha
  Foxtail, Giant plant response rating: 0
[16]; 500 g ai/ha
  Foxtail, Giant plant response rating: 0
[17]; 125 g ai/ha
  Blackgrass plant response rating: 0
[17]; 500 g ai/ha
  Blackgrass plant response rating: 0
[18]; 125 g ai/ha, 0 = no effect, 100 = complete control
  Rice plant response rating (0 to 100 scale): 0
[18]; 500 g ai/ha, visual rating 0-100, 0 no effect, 100 complete control
  Plant response rating, Rice: 0
[19]; [29]
  Surinam Grass plant response rating (0 to 100 scale): 0
[19]; [30]
  Plant response rating, Surinam Grass: 0
[19]; 125 g ai/ha
  Surinam Grass plant response rating: 0
[19]; 500 g ai/ha
  Surinam Grass plant response rating: 0
[20]; [25]
  Pigweed plant response rating: 0
[20]; [26]
  Plant response rating, Pigweed: 0
[20]; [27]
  Pigweed plant response rating: 50
[20]; [28]
  Pigweed plant response rating: 0
[21]; [30]
  Plant response rating, Corn: 0
[21]; 125 g ai/ha
  Corn plant response rating: 0
[21]; 500 g ai/ha
  Corn plant response rating: 0
[22]; [25]
  Velvetleaf plant response rating: 10
[22]; [26]
  Plant response rating, Velvetleaf: 20
[22]; [27]
  Velvetleaf plant response rating: 10
[22]; [28]
  Velvetleaf plant response rating: 5
[23]; [29]
  Lambsquarters plant response rating (0 to 100 scale): 0
[23]; [30]
  Plant response rating, Lambsquarters: 0
[23]; 125 g ai/ha
  Lambsquarters plant response rating: 0
[23]; 500 g ai/ha
  Lambsquarters plant response rating: 0
[24]
  Ducksalad plant response rating: 0

— patent US20060069132A1, “Azolecarboxamide herbicides” (priority 2004, published 2006)
